The values that follow come from US20150344540A1, “NOVEL GLP-1 RECEPTOR AGONISTS WITH CHOLESTEROL EFFLUX ACTIVITY” (NOVO NORDISK A/S, priority 2012, published 2015).

Data set [1] concerns the target human GLP-1 receptor (human, UniProt P43220).
In data set [2] the target is T1, human GLP-1 receptor (Homo sapiens, UniProt P43220).
In data set [3] the test system is Mouse monocyte/macrophage cell line, RAW 264.7. The data set can be described thus: Cholesterol efflux assay (3H-cholesterol, macrophage cell line). Type of data set: cell-based. To be noted: RAW 264.7, 4 hrs incubation, 0.1% human serum albumin; for 4 h Cholesterol Efflux Emax: ABCA1-mediated efflux.
Data set [4] is described as follows: Pharmacokinetics in mini-pigs after i.v. administration. The note with it: female, Göttingen, minipig, iv, 5 nmol/kg. An outline of the steps: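 Female Göttingen mini-pigs (15-20 kg, N=3) received 5 nmol/kg i.v. via central venous catheter. Plasma levels of N-terminally intact peptide measured by LOCI immunoassay with N-terminal and mid-/C-terminal antibodies; non-compartmental analysis of individual profiles.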

For data set [5], the target named is T1, human GLP-1 receptor. The data set can be described thus: Functional GLP-1 receptor assay, in vitro potency (CRE luciferase; whole cells). To be noted: BHK cells expressing human GLP-1 receptor. The format is cell-based.
Target sequence in this assay (P43220 24-463): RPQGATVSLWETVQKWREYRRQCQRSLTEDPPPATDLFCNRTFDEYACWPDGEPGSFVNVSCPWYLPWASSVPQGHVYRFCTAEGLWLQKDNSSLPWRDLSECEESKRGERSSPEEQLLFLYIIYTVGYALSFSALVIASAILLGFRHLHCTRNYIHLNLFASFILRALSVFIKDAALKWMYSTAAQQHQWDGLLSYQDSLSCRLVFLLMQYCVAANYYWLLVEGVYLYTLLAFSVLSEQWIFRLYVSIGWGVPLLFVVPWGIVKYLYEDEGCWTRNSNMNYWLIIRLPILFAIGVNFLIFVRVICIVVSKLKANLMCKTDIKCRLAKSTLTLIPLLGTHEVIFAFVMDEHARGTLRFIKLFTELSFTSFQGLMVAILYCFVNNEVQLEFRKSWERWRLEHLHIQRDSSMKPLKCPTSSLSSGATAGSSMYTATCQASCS
Data set [6] is described as follows: Pharmacokinetics in normal mice after i.v. and s.c. administration. The format is in vivo, female C57B1/6J mice.
Procedure: The mice, 60 female C57B1/6J were purchased from Taconic, arriving at Novo Nordisk A/S Animal Unit at 6-7 weeks of age. The mice were housed according to standard rules in the animal unit and given free access to standard chow and tap water. The animals were kept at a room temperature and housed in groups of 8 mice, with free access to food and water, according to Animal Unit's SOP (Housing of experimental animals at Novo Nordisk A/S).
Peptide is administered as a single dose either s.c. or i.v.
After the 2nd sample the mice were sacrificed. The plasma concentrations of the compounds with intact N-terminus were determined using a Luminescence Oxygen Chanelling Immuno-assay (LOCI). The donor beads were coated with streptavidin, while acceptor beads were conjugated with a monoclonal antibody recognizing a mid-/C-terminal epitope of the peptide. The other monoclonal antibody, specific for the N-terminus, was biotinylated. The three reactants were combined with the analyte and formed a two-sited immuno-complex. Illumination of the complex released singlet oxygen atoms from the donor beads, which were channeled into the acceptor beads and triggered chemiluminescence which was measured in an Envision plate reader. The amount of light was proportional to the concentration of the compound.
[7] abbreviates: GLP1R CRE luc 1% HSA EC50 Mean Value, 1% HSA.
Where [8] appears, read: plasma, T1/2 Mean Value, Göttingen mini-pigs, N=3.
Setting [9] is: female, C57B1/6J, mouse, plasma, sc.
Where [10] appears, read: mice, s.c., Compound 1 dose 323 nmol/kg, Compound 5 dose 62 nmol/kg.

Like-named read-outs stand apart in the source and are kept apart here. Where a SMILES comes first, the peptide text is derived from it. [ ]: non-standard residue; d: D form. Aib = CC(C)(N)C(=O)O

As for “[Aib2,Gly16,Lys17,Ala18,Arg20,Glu21,Leu27,Glu28,Lys29]-Glucagonyl-(1-29)-Aib-Lys-Glu-Phe-Leu amide (peptide)”, in the data set with human GLP-1 receptor [1], the CRE luciferase EC50, 0% HSA came to 1630 pM and the CRE luciferase EC50, 1% HSA was determined as 908 pM.

In the data set with human GLP-1 receptor [1], “[Aib2,Gly16,Lys17,Arg20,Glu21,Leu27,Glu28,Lys29]-Glucagonyl-(1-29)-Aib-Lys-Glu-Phe-Leu amide (peptide)” showed a CRE luciferase EC50, 0% HSA of 591 pM and a CRE luciferase EC50, 1% HSA of 297 pM.

With Exendin-4(1-39) (ligand), in the data set with human GLP-1 receptor [2], the CRE luciferase EC50, 0% HSA amounted to 5 pM and the CRE luciferase EC50, 1% HSA turned out to be 4 pM.

In the data set with human GLP-1 receptor [1], “[Glu15,Glu16,Gln17,Ala18,Lys20,Glu21,Ile23,Ala24,Leu27,Glu28,Lys29]-Glucagonyl-(1-29)-Aib-Lys-Glu-Phe-Leu amide (peptide)” gave a CRE luciferase EC50, 0% HSA of 118 pM and a CRE luciferase EC50, 1% HSA of 61 pM.

In the data set with human GLP-1 receptor [1], “[Glu15,Glu16,Lys17,Ala18,Lys20,Glu21,Ile23,Ala24,Leu27,Glu28,Lys29]-Glucagonyl-(1-29)-Aib-Lys-Glu-Phe-Leu amide (peptide)” came in with a CRE luciferase EC50, 0% HSA of 86 pM and a CRE luciferase EC50, 1% HSA of 44 pM.

In the data set with human GLP-1 receptor [1], “[Lys17,Ala18,Arg20,Glu21,Leu27,Glu28,Lys29]-Glucagonyl-(1-29)-Aib-Lys-Glu-Phe-Leu amide (peptide)” registered a CRE luciferase EC50, 0% HSA of 434 pM and a CRE luciferase EC50, 1% HSA of 198 pM.

In the data set with human GLP-1 receptor [1], “[Aib2,His3,Glu15,Glu16,Glu17,Ala18,Lys20,Glu21,Ile23,Ala24,Leu27,Glu28,Lys29]-Glucagonyl-(1-29)-Aib-Lys-Glu-Phe-Leu amide (peptide)” gave a CRE luciferase EC50, 0% HSA of 80 pM and a CRE luciferase EC50, 1% HSA of 49 pM.

In general, EC50 refers to the midpoint of the concentration-response curve. In general, half-life refers to the time in which the quantity being followed falls by half. With `CC(C)C[C@H](NC(=O)[C@H](Cc1ccccc1)NC(=O)[C@H](CCC(=O)O)NC(=O)[C@H](CCCCN)NC(=O)C(C)(C)NC(=O)[C@H](CCCCN)NC(=O)[C@H](CCC(=O)O)NC(=O)[C@H](CC(C)C)NC(=O)[C@H](CC(C)C)NC(=O)[C@H](Cc1c[nH]c2ccccc12)NC(=O)[C@H](CCC(N)=O)NC(=O)[C@@H](NC(=O)[C@H](Cc1ccccc1)NC(=O)[C@H](CCC(=O)O)NC(=O)[C@H](CCCNC(=N)N)NC(=O)[C@H](C)NC(=O)[C@H](C)NC(=O)[C@H](CCCCN)NC(=O)[C@H](CO)NC(=O)[C@H](CC(=O)O)NC(=O)[C@H](CC(C)C)NC(=O)[C@H](Cc1ccc(O)cc1)NC(=O)[C@H](CCCCN)NC(=O)[C@H](CO)NC(=O)[C@H](Cc1ccc(O)cc1)NC(=O)[C@H](CC(=O)O)NC(=O)[C@H](CO)NC(=O)[C@@H](NC(=O)[C@H](Cc1ccccc1)NC(=O)[C@@H](NC(=O)CNC(=O)[C@H](CCC(N)=O)NC(=O)C(C)(C)NC(=O)[C@@H](N)Cc1c[nH]cn1)[C@@H](C)O)[C@@H](C)O)C(C)C)C(N)=O` [Compound 26] (H-H[Aib]QGTFTSDYSKYLDSKAAREFVQWLLEK[Aib]KEFL-NH2), in data set [3], the “4 h Cholesterol Efflux Emax” value is recorded as 87%. Besides, the 50% effective concentration (EC50) in data set [3] (read-out: 4 h Cholesterol Efflux EC50, ABCA1-mediated efflux (CPT-cAMP induced minus non-induced)) was found to be 200 nM. In data set [4] (in vivo), this molecule had a C0 of 123 nM, a Vd of 0.0549 L/kg, a clearance of 5.21 mL/h/kg and a half-life of 438 min. On human GLP-1 receptor [5] (GLP1R CRE luc 0% HSA EC50 Mean Value, 0% HSA), this molecule had an EC50 of 0.393 nM. The molecule further returned a concentration for a half-maximal effect (EC50) at human GLP-1 receptor [5] (setting [7]) of 0.153 nM.

In the data set with human GLP-1 receptor [1], “[Aib2,Lys17,Ala18,Arg20,Glu21,Leu27,Glu28,Lys29]-Glucagonyl-(1-29)-Aib-Lys-Glu-Phe-Leu amide (peptide)” gave a CRE luciferase EC50, 0% HSA of 393 pM and a CRE luciferase EC50, 1% HSA of 153 pM.

As usually defined, the Tmax is the time from dosing to the highest level. Take `CC[C@H](C)[C@H](NC(=O)[C@H](Cc1ccccc1)NC(=O)[C@H](CCC(=O)O)NC(=O)[C@H](CCCCN)NC(=O)[C@@H](NC(=O)[C@H](C)NC(=O)[C@H](CCC(=O)O)NC(=O)CNC(=O)[C@H](CCC(=O)O)NC(=O)[C@H](CC(C)C)NC(=O)[C@H](Cc1ccc(O)cc1)NC(=O)[C@H](CO)NC(=O)[C@H](CO)NC(=O)[C@@H](NC(=O)[C@H](CC(=O)O)NC(=O)[C@H](CO)NC(=O)[C@@H](NC(=O)[C@H](Cc1ccccc1)NC(=O)[C@@H](NC(=O)CNC(=O)[C@H](CCC(=O)O)NC(=O)C(C)(C)NC(=O)[C@@H](N)Cc1c[nH]cn1)[C@@H](C)O)[C@@H](C)O)C(C)C)C(C)C)C(=O)N[C@@H](C)C(=O)N[C@@H](Cc1c[nH]c2ccccc12)C(=O)N[C@@H](CC(C)C)C(=O)N[C@H](C(=O)N[C@@H](CCC(=O)O)C(=O)N[C@@H](CCCCN)C(=O)N[C@H](C(=O)N[C@@H](CCCCN)C(=O)N[C@@H](CCC(=O)O)C(=O)N[C@@H](Cc1c[nH]cn1)C(=O)N[C@@H](CC(C)C)C(N)=O)C(C)C)C(C)C` [Compound 5, [Aib8,Glu23,Val25,Glu34,Lys35,Val36,Lys37]-GLP-1-(7-37)-peptidyl-Glu-His-Leu amide] (H-H[Aib]EGTFTSDVSSYLEGEAVKEFIAWLVEKVKEHL-NH2): the “4 h Cholesterol Efflux Emax” value in data set [3] was found to be 111%. Moreover, the C0 in data set [4] (plasma) stood at 63.3 nM. The Vd in data set [4] (plasma) amounted to 0.128 L/kg; in data set [6] (female, C57B1/6J, mouse, plasma, iv, read-out: Volume of distribution), 0.048 L/kg. Also, the clearance in data set [4] (plasma) was 3.87 mL/h/kg; in data set [6] (mice, i.v., Compound 1 dose 99 nmol/kg, Compound 5 dose 135 nmol/kg) it was 5.6 mL/h/kg; in data set [6] (setting [10]) it was 8.298 mL/h/kg. Besides, the half-life in data set [4] (plasma, T1/2, mini-pigs) was 1380 min; in data set [4] (setting [8]), 1380 min; in data set [6] (female, C57B1/6J, mouse, plasma, iv) it was 354 min; in data set [6] (setting [9]) it was 582 min. On human GLP-1 receptor [5] (setting [7]), this molecule came in with an EC50 of 0.116 nM. In addition, the Tmax in data set [6] (setting [9]) stood at 4 h. Also, the Volume of distribution in data set [6] (setting [10]) stood at 0.1164 L/kg.

In the case of `CC[C@H](C)[C@H](NC(=O)[C@H](Cc1ccccc1)NC(=O)[C@H](CCC(=O)O)NC(=O)[C@H](CCCCN)NC(=O)[C@H](C)NC(=O)[C@H](C)NC(=O)[C@H](CCC(=O)O)NC(=O)CNC(=O)[C@H](CCC(=O)O)NC(=O)[C@H](CC(C)C)NC(=O)[C@H](Cc1ccc(O)cc1)NC(=O)[C@H](CO)NC(=O)[C@H](CO)NC(=O)[C@@H](NC(=O)[C@H](CC(=O)O)NC(=O)[C@H](CO)NC(=O)[C@@H](NC(=O)[C@H](Cc1ccccc1)NC(=O)[C@@H](NC(=O)CNC(=O)[C@H](CCC(=O)O)NC(=O)C(C)(C)NC(=O)[C@@H](N)Cc1c[nH]cn1)[C@@H](C)O)[C@@H](C)O)C(C)C)C(=O)N[C@@H](C)C(=O)N[C@@H](Cc1c[nH]c2ccccc12)C(=O)N[C@@H](CC(C)C)C(=O)N[C@H](C(=O)N[C@@H](CCC(=O)O)C(=O)N[C@@H](CCCCN)C(=O)NC(C)(C)C(=O)N[C@@H](CCCCN)C(=O)N[C@@H](CCC(=O)O)C(=O)N[C@@H](Cc1ccccc1)C(=O)N[C@@H](CC(C)C)C(N)=O)C(C)C` [Compound 8, [Aib8,Glu23,Glu34,Lys35,Aib36,Lys37]-GLP-1-(7-37)-peptidyl-Glu-Phe-Leu amide] (H-H[Aib]EGTFTSDVSSYLEGEAAKEFIAWLVEK[Aib]KEFL-NH2), the “4 h Cholesterol Efflux Emax” value in data set [3] was found to be 100%. In addition, in data set [4] (plasma), the C0 amounted to 79.7 nM, the Vd turned out to be 0.152 L/kg and the clearance was 3.09 mL/h/kg. The molecule also showed a half-life in data set [4] (plasma, T1/2, mini-pigs) of 1970 min. In data set [4] (setting [8]), this molecule gave a half-life of 1970 min. The EC50 at human GLP-1 receptor [5] (0% HSA, read-out: GLP1R CRE luc 0% HSA EC50 Mean Value) came out at 0.163 nM.

Regarding “[Glu15,Glu16,Lys17,Lys18,Lys20,Glu21,Ile23,Ala24,Leu27,Glu28,Lys29]-Glucagonyl-(1-29)-Aib-Lys-Glu-Phe-Leu amide (peptide)”, in the data set with human GLP-1 receptor [1], the CRE luciferase EC50, 0% HSA was 1170 pM and the CRE luciferase EC50, 1% HSA was 588 pM.
